Laboratory results published in patent US20120238604A1, “CYTOTOXIC COMPOUNDS” (Molecular Discovery Systems, priority 2009, published 2012).
Where two headings read alike, the source gives them in different places.

Tests used:
[1] = tested on: HeLa cells expressing H2B-GFP; assay: Inhibition of cell proliferation (GI50) by nuclear counts, IN Cell Analyser; format: cell-based, human; settings: for GI50: Homo sapiens; for GI50 / Anti-proliferative activity (effect of substitution, in words): HeLa; for GI50 / GI50 (HeLa): concentration causing 50% inhibition of cell proliferation, nuclear counts every 24 hours; for Anti-proliferative activity (effect of substitution, in words): text comment on Table 3
Protocol: Table 3 HeLa cells expressing H2B-GFP were plated in 96-well plates and exposed to concentrations ranging from 100 μM to […] of the indicated compounds C1-C78. The number of cells was then determined every 24 hours by imaging of the plates using an IN Cell Analyser (GE Healthcare), followed by measurement of the number of intact cell nuclei using Developer™ software (GE Healthcare). Drug concentrations that cause 50% inhibition of cell proliferation (GI50) were determined from the nuclear counts using GraphPad Prism software or ED50v10 freeware.

[2] = tested on: HeLa cells expressing H2B-GFP; assay: Induction of mitotic arrest (EC50), mitotic index by phospho-histone 3 staining; format: cell-based; settings: Homo sapiens, concentration for 50% induction of mitotic arrest, overnight, read-out: EC50 (mitosis) (HeLa)
Protocol: Parallel plates were treated overnight with the compounds to visualize the mitotic cells by staining with anti-phospho-histone 3 and Alexafluor 546 nm secondary antibodies after fixation with 4% paraformaldehyde. Following imaging of the nuclear GFP and phospho-histone 3 signals using an IN Cell Analyser (GE Healthcare), determination of the mitotic index by analysis of the images with Developer™ software (GE Healthcare) permitted estimation of the concentration that leads to 50% induction of the mitotic arrest (EC50). It can be seen that inhibition of cell proliferation and mitosis correlate well for the compounds tested.

[3] = tested on: HeLa cells expressing H2B-GFP; assay: Perturbation of mitotic spindle organisation and assembly, anti-β-tubulin staining; format: cell-based, human; settings: 20 μM, overnight
Protocol: HeLa cells stably expressing a green fluorescent marker of nuclear DNA (H2B-GFP) were exposed overnight to carrier (DMSO) or 20 μM compounds A1 and B3. The cells were then fixed with methanol, stained with mouse monoclonal anti-β-tubulin antibody and Alexafluor 546 nm goat anti-mouse antibody, and fluorescent signal visualised by microscopy. The open circle indicates a cell with a perturbed mitotic spindle while the arrow indicates a cell with a mostly disassembled mitotic spindle.
These cells were exposed overnight to carrier (0.1% (v/v) DMSO) or an equivalent volume of DMSO containing compounds A1 and B3 (final concentration in the culture medium was 20 μM). The cells were then briefly rinsed with phosphate-buffered saline (PBS) prior to fixation with 100% methanol at −20° C. The fixed cells were then stained with mouse monoclonal anti-β-tubulin antibody and Alexafluor 546 nm goat anti-mouse antibody (diluted 400× from commercial stocks into PBS containing 10 mg/ml bovine serum albumin (BSA)). The GFP and 546 nm fluorescence signals were then visualised using a microscope equipped for digital confocal epifluorescence imaging. The open circle in FIG. 1 represents a cell with a perturbed mitotic spindle while the arrow points to a cell with a mostly unassembled mitotic spindle.

[4] = tested on: HeLa cells expressing H2B-GFP; assay: Induction of apoptosis, Annexin V binding; format: cell-based, human; settings: overnight; 20 μM compound A1 or 100 nM paclitaxel
Protocol: HeLa cells were exposed overnight to 20 μM compound A1 or 100 nM paclitaxel, stained with a fluorescent Annexin V marker of apoptosis and visualised by epifluorescence microscopy following fixation.
FIG. 3 The H2B-GFP-expressing HeLa cells were treated overnight with 20 μM compound A1 or 100 nM paclitaxel. The cells were then exposed to Annexin-V tagged with Alexafluor 546 nm and visualized using an epifluorescence microscope equipped for digital imaging following fixation with 4% para-formaldehyde.

Structure (SMILES) | GI50 [1] [µM] | EC50 ([2]; values in nM) [nM] | other results
C#Cc1ccccc1NC(=S)N/N=C/c1ccccc1OC [CB33] | 1 | – | –
COc1ccccc1/C=N/NC(=S)Nc1cccc2c1CCNC2 [CB69] | – | > 10000 | –
COc1ccccc1/C=N/NC(=S)Nc1cccc2ccccc12 [CB49] | 0.1 to 0.3 | – | –
COc1ccccc1Nc1nnc(-c2ccccc2OC)[nH]1 [CB78] | – | > 10000 | –
CCOc1ccccc1NC(=S)N/N=C/c1ccncc1N [CB72] | – | > 10000 | –
FC(F)(F)c1ccccc1NC(=S)N/N=C/c1cccc2c1OCO2 [CB40] | 0.5 | – | –
COc1ccccc1/C=N/N(C)C(=S)N(C)c1cccc(C)c1 [C4] | ≥ 20 | – | –
COc1ccccc1/C=N/NC(=S)Nc1ccccc1CCO [CB57] | – | ~2000 | –
Fc1ccc(NC(=S)N/N=C/c2ccccc2)cc1 [A1, BENZALDEHYDE N-(4-FLUOROPHENYL)THIOSEMICARBAZONE] | – | – | Effect on mitotic spindle organisation and assembly [3]: substantial alterations in the spatial organisation of mitotic spindle fibres and chromosomes; Induction of apoptotic cells (Annexin-V binding) [4]: induction of apoptotic cells
COc1ccccc1/C=N/NC(=S)Nc1ccc(Cl)cc1 [C13] | 1 | – | –
COc1ccccc1/C=N/NC(=S)Nc1cc(C)cc(C)c1 [CB30] | 0.5 | – | –
COc1cccc(OC)c1/C=N/NC(=S)Nc1cccc(C)c1 [C21] | – | – | GI50 (HeLa) [1]: no activity
COc1cccc(NC(=S)N/N=C/c2ccccc2OC)c1 [C26] | 1.3 | – | EC50 ([2]; values given in μM): ~1000 nM
COc1ccccc1/C=N/NC(=S)Nc1cnccc1C(F)(F)F [CB48] | 0.1 to 0.3 | – | –
COc1ccccc1/C=N/NC(=S)Nc1ccccc1Cl [C8] | 0.1 | 300 | –
COc1ccccc1/C(C)=N/NC(=S)Nc1cccc(C)c1 [C3] | ≥ 20 | – | –
COc1ccccc1/C=N/NC(=S)Nc1ccccc1C(C)C [CB46] | 0.003 | – | Anti-proliferative activity (effect of substitution, in words) [1]: greatly increase the anti-proliferative activity
CCOc1ccccc1NC(=S)N/N=C/c1cnccc1OC [CB67] | – | > 3000 | –
COc1ccccc1/C=N/NC(=S)Nc1ccc(C(F)(F)F)cc1 [C23] | ≥ 20 | – | –
COc1ccccc1/C=N/NC(=S)Nc1ccc(F)c(C)c1 [CB29] | 1 | – | –
Cc1cccc(NC(=S)N/N=C/c2ccccc2F)c1 [C27] | ≥ 20 | – | –
COc1ccccc1/C=N/NC(=S)Nc1cccc(C#N)c1 [C11] | 2 | – | –
COc1ccccc1/C=N/NC(=S)Nc1c(C)cccc1C [CB44] | ~5 | – | –
COc1ccccc1/C=N/NC(=S)Nc1ccccc1Br [CB35] | 0.05 | 100 | –
COc1ccccc1/C=N/NC(=S)Nc1ccccc1C#N [CB37] | ~3 | – | –
COc1ccccc1/C=N/NC(=S)Nc1ccc(Cl)cc1Cl [CB75] | – | 20 | Anti-proliferative activity (effect of substitution, in words) [1]: greatly increase the anti-proliferative activity

Structure (SMILES) | GI50 [1] [µM] | EC50 ([2]; values in nM) [nM] | other results
CCN(CC)CCOc1ccccc1NC(=S)N/N=C/c1ccccc1OC [CB66] | – | > 10000 | –
COc1ccccc1/C=N/NC(=S)Nc1ccccc1OC(F)(F)F [CB60] | – | ~500 | –
COc1ccccc1/C=N/NC(=S)Nc1cccc(Cl)c1 [C24] | 0.5 | – | –
COc1ccccc1/C=N/NC(=S)Nc1ccc2c(c1)OCO2 [CB76] | – | > 10000 | –
COc1ccccc1/C=N/NC(=S)Nc1cccnc1OC [CB54] | 0.017 | – | –
COc1ccccc1/C=N/NC(=S)Nc1ccc(N)c(C(F)(F)F)c1 [CB65] | – | 100 | –
COc1ccc(OC)c(/C=N/NC(=S)Nc2cccc(C)c2)c1 [C19] | ≥ 15 | – | –
COc1ccccc1/C=N/NC(=S)Nc1cccc(C)n1 [CB55] | ~1 | – | –
COc1ccccc1/C=N/NC(=S)Nc1ccc(F)cc1C(F)(F)F [CB61] | – | ~200 | –
COc1ccccc1/C=N/NC(=S)Nc1ccc(C#N)cc1 [C5] | ~20 | – | –
COc1ccccc1/C=N/NC(=S)Nc1ccc(Cl)cc1C(F)(F)F [CB62] | – | ~50 | –
COc1cccc(/C=N/NC(=S)Nc2cccc(C)c2)c1OC [C20] | – | – | GI50 (HeLa) [1]: no activity
COc1ccccc1/C=N/NC(=S)Nc1cccc(F)c1 [C17] | ~1 | – | –
COc1ccccc1/C=N/NC(=S)Nc1ccccc1C [C6] | 0.09 | 150 | –
COc1ccccc1/C=N/NC(=S)Nc1cccnc1C [CB52] | 0.1 to 0.3 | – | –
COc1ccccc1/C=N/NC(=S)Nc1ccc(F)c(Cl)c1 [C28] | ~3 | – | –
COc1ccnc(NC(=S)N/N=C/c2ccccc2OC)c1 [CB51] | ~10 | – | –
COc1ccc(NC(=S)N/N=C/c2ccccc2OC)cc1 [C10] | 2 | – | EC50 ([2]; values given in μM): > 1000 nM
CCOCCOc1ccccc1NC(=S)N/N=C/c1ccccc1OC [CB63] | – | ~2000 | –
COc1ccccc1/C=N/NC(=S)Nc1cc(Cl)ccc1OC [CB31] | 0.015 | 50 | –
COc1ccccc1/C=N/NC(=O)Nc1cccc(C)c1 [C14] | 4 | – | –
COc1ccccc1/C=N/N(C)C(=S)Nc1cccc(C)c1 [C2] | ~15 | – | –
COc1ccccc1/C=N/NC(=S)Nc1cc(Cl)cc(Cl)c1 [C16] | 2.6 | – | –
COc1ccccc1/C=N/NC(=S)Nc1ccc(-c2ccccc2)cc1OC(F)(F)F [CB64] | – | > 10000 | –
CCOc1ccccc1NC(=S)N/N=C/c1cccnc1N [CB70] | – | ~1000 | –
Cc1cccc(NC(=S)N/N=C/c2ccccc2C)c1 [C22] | – | – | GI50 (HeLa) [1]: no activity

Structure (SMILES) | GI50 [1] [µM] | EC50 ([2]; values in nM) [nM] | other results
COc1ccccc1/C=N/NC(=S)Nc1cnccc1C [CB53] | ~10 | – | –
CCOc1ccccc1NC(=S)N/N=C/c1cc(O)ccc1OC [CB74] | – | ~1000 | –
COc1ccccc1/C=N/NC(=S)Nc1c(C)cccc1OC [CB38] | ~3 | – | –
COc1ccccc1/C=N/NC(=S)NCc1ccccc1 [C25] | – | – | GI50 (HeLa) [1]: no activity
COc1ccccc1/C=N/NC(=S)Nc1ccc(C)cc1 [C18] | 0.7 | ≥ 30 | –
COc1ccccc1/C=N/NC(=S)Nc1ccccc1OCC(C)C [CB56] | – | ~1000 | –
COc1ccccc1/C=N/NC(=S)Nc1ccc(C)cc1C [CB42] | 0.0095 | – | Anti-proliferative activity (effect of substitution, in words) [1]: greatly increase the anti-proliferative activity
COc1ccccc1/C=N/NC(=S)Nc1ccccc1OC [C15] | 0.025 | ~70 | Anti-proliferative activity (effect of substitution, in words) [1]: greatly increase the anti-proliferative activity
CCOc1ccccc1NC(=S)N/N=C/c1ccccc1OC [CB34] | 0.011 | 10 | Anti-proliferative activity (effect of substitution, in words) [1]: greatly increase the anti-proliferative activity
COc1ccccc1/C=N/NC(=S)Nc1cc(C(=O)O)ccc1OC [CB58] | – | ~10000 | –
COc1ccccc1/C=N/NC(=S)Nc1cccnc1 [CB77] | – | ~2000 | –
CCOc1ccccc1NC(=S)N/N=C/c1cnccc1C [CB71] | – | ~500 | –
COc1ccccc1/C=N/NC(=S)Nc1cccnc1Cl [CB39] | ~3 | – | –
COc1ccccc1/C=N/NC(=S)Nc1cccc(C)c1 [C1] | 0.7 | – | EC50 ([2]; values given in μM): ~1000 nM
COc1ccccc1/C=N/NC(=S)Nc1cccc(Cl)c1OC [CB32] | 0.025 | – | –
COc1ccccc1/C=N/NC(=S)Nc1ccc(C(C)C)cc1 [CB43] | ~5 | – | –
CCOc1ccccc1NC(=S)N/N=C/c1cc(N(O)O)ccc1OC [CB68] | – | > 10000 | –
COc1ccccc1/C=N/NC(=S)NC1CCCCC1 [C12] | ≥ 20 | – | –
COc1cc(C)c(NC(=S)N/N=C/c2ccccc2OC)cn1 [CB47] | ~0.3 | – | –
COc1ccccc1/C=N/NC(=S)Nc1ccccc1 [C7] | 5 | – | –
COC(=O)c1sccc1NC(=S)N/N=C/c1ccccc1OC [CB50] | ~3 | – | –
COc1ccccc1/C=N/NC(=S)NC(c1ccccc1)c1ccccc1 [CB41] | ~5 | – | –
COc1ccccc1/C=N/NC(=S)Nc1cc(-c2ccccc2)ccc1OC [CB59] | – | ~10000 | –
CCOc1ccccc1NC(=S)N/N=C/c1cccnc1OC [CB73] | – | ~1000 | –
CCc1ccccc1NC(=S)N/N=C/c1ccccc1OC [CB45] | 0.013 | – | Anti-proliferative activity (effect of substitution, in words) [1]: greatly increase the anti-proliferative activity
COc1ccccc1/C=N/NC(=S)NCc1cccc(C)c1 [CB36] | ~5 | – | –
